# Measured values published in US12257253B2, “Triamterene or nolatrexed for use in the treatment of phenylketonuria” (SOM INNOVATION BIOTECH, S.A., priority 2019, dated 2025).
# How the values were obtained:
# wild-type PAH [1] = molecular target: T1, wild-type PAH (Homo sapiens (Human), UniProt P00439); test: Phenylalanine hydroxylase enzyme activity assay in transfected COS7 cells; type: cell-based; conditions: compound 10 μM (sepiapterin 5 μM), 48 h
# Experimental: (§1) 2. Phenylalanine Hydroxylase Enzyme Activity Assay
# (§2) This assay was completed in cell culture to analyze the enzyme activity in the presence of compounds. In brief, wild-type or Arg261Gln PAH constructs were transiently expressed in COS7-cells in a 96 well format reflecting the PAH genotype (COS7 cell line has no endogenous PAH). Cells were treated with the compounds at a final concentration of 10 μM and the enzyme activity of PAH was analyzed 48 h after transfection. The effect of the compounds on the residual enzyme activity was determined in comparison to non-treated cells (NCC, only compound solvent final 0.1%). To normalize the cellular background signal non transfected cells (NT control) were treated with compound or solvent equally for 48 h. As a positive control we used sepiapterin, a stable precursor of BH4 (CAS 17094-01-8), stabilized in 100 mM DTT, in a final concentration of 5 μM.
# (§3) PAH activities were assayed at 25° C. as previously described (Gersting, S. W., J. Biol. Chem., 2010, 285(40), 30686-30697) with modifications. The standard mixture contained 22.35 mM NaHepes, pH 7.0, […] catalase, 10 μM ferrous ammonium sulphate, and 1 mM L-Phe (L-phenylalanine) final. Assay mixture and cell culture enzyme were pre-incubated for 5 min and the reaction was initiated by the addition of 75 μM BH4 (stabilized in 100 mM dithiothreitol) final, run for 60 min and stopped by acetic acid. The amount of L-tyrosine production was measured and quantified by HPLC, assayed as triplicates.
# (§4) The effect of compound on PAH enzyme activity was calculated from triplicates as follows: first the background of the NT cells were subtracted from the transfected cells (treated or NCC) and then the percentage of treated (compound) versus NCC was determined. Enzyme activity greater than 100% represents an increase in the enzyme activity with respect to NCC.
# Arg261Gln (R261Q) PAH [2] = molecular target: T2, Arg261Gln (R261Q) PAH (Homo sapiens (Human), UniProt P00439, R261Q); test: as above; type: cell-based; conditions: compound 10 μM (sepiapterin 5 μM), 48 h
# T2 sequence (P00439 whole entry R261Q): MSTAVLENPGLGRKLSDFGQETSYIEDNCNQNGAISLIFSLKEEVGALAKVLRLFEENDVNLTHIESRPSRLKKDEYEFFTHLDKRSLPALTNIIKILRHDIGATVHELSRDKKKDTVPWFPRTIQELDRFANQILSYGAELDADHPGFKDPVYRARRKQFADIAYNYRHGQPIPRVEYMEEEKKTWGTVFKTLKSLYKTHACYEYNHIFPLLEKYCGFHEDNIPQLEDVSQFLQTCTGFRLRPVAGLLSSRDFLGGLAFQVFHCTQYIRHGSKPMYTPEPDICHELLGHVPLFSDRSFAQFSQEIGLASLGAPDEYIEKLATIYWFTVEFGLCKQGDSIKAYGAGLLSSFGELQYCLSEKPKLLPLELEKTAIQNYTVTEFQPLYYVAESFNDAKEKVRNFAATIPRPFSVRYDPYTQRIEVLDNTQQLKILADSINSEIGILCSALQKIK
# Experimental: as §1, §2, §3, §4
# wild-type PAH [3] = molecular target: T1, wild-type PAH; test: Thermal stability shift assay (DSF); type: binding; conditions: compound 30 μM (BH4 43 μM)
# Description: (§5) 1. Thermal Stability Shift Assay
# (§6) Thórólfsson et al. (Biochemistry, 2002, 41(24), 7573-7585) describe that the thermal denaturation of hPAH occurs in three stages: (i) unfolding of the four regulatory domains, which is responsible for the low-temperature calorimetric transition (ii) unfolding of two (out of the four) catalytic domains, which is responsible for the high-temperature transition; and (iii) irreversible protein denaturation. The most important domain for stabilization is the regulatory domain.
# (§7) Thus, to test the compound effect on thermal stability of the target protein a thermal stability shift assay (also called differential scanning fluorimetry (DSF)) was performed [Niesen F. H. et al., Nat Protoc., 2007, 2(9), 2212-2221; Gersting S. W. et al., Human Molecular Genetics, 2010, 19(10), 2039-2049; and Gersting S. W. et al., J. Biol Chem. 2010, 285(40), 30686-30697]. DSF monitors thermal unfolding of proteins in the presence of a fluorescent dye (SYPRO Orange; λexc=465 nm, λem=610 nm) and was performed using a real-time PCR instrument (Applied BioSystems 7000HT Fast Real-Time PCR System). Compounds that increase the midpoints of thermal denaturation (Tm) are considered to bind and stabilize the protein.
# (§8) In brief, purified wild-type or Arg261Gln (which is the most frequent mutation responsive to BH4) PAH proteins (diluted in 20 mM NaHEPES, pH 7.0 and 200 mM NaCl, 2 mM DTT to 2 mg/ml) were used at a final concentration of 0.2 mg/ml protein per sample. The compounds were tested at a final concentration of 30 μM. A no compound control (NCC) was used according to the compound solvent at a final concentration of 2% (H2O, DMSO, ethanol, methanol). As a positive control we used the natural cofactor 6R-L-erythro-5,6,7,8-tetrahydrobiopterin (BH4, CAS 69056-38-8) stabilized in 100 mM dithiothreitol (DTT), in a final concentration of 43 μM. To exclude unspecific effects of the compound to the dye, a no protein control (NPC) was added (buffer, compound, dye). The measurement was performed in duplicates and samples were denatured by scanning a temperature range of 20 to 75° C. at a scan rate of 0.5° C./min.
# (§9) The data was normalized and the respective Tm values were calculated by bi-phasic equation to determine temperatures at which half denaturation occurred (Software GraphPadPrism). To identify compound specific effects on the thermal stability of the target protein, the reference Tm (NCC) was used to calculate the temperature shift between compound treated and not treated protein (Tm−TmNCC), from duplicates, to provide transition midpoints shifts (ΔTm1 and ΔTm2). Tm1 and Tm2 are the two different transition mid point of the unfolding process of the protein as the tetrameric protein PAH unfolds in two steps due to its domains. A shift in Tm1 of 2° C. reflects a relevant increase in thermal stability on the regulatory domain and, thus, is considered a positive result.
# Arg261Gln (R261Q) PAH [4] = molecular target: T2, Arg261Gln (R261Q) PAH; test: Thermal stability shift assay (DSF); type: binding; conditions: compound 30 μM (BH4 43 μM)
# Description: as §5, §6, §7, §8, §9
# [5] = shift of transition midpoint 1 vs NCC
# [6] = shift of transition midpoint 2 vs NCC
# T1 sequence (P00439 whole entry): as the sequence (P00439 whole entry R261Q) above, with Q261R counted along it
structure (smiles),measurement,setting,value
"Nc1nc(N)c2nc(-c3ccccc3)c(N)nc2n1 [Triamterene, 2,4,7-triamino-6-phenylpteridine]",PAH enzyme activity (L-Tyrosine formation) WT PAH Mean,wild-type PAH [1],118.98 % NCC
same,PAH enzyme activity (L-Tyrosine formation) R261Q PAH Mean,Arg261Gln (R261Q) PAH [2],161.48 % NCC
same,ΔTm1 WT PAH,wild-type PAH [3]; [5],0.33 °C
same,ΔTm2 WT PAH,wild-type PAH [3]; [6],3.23 °C
same,ΔTm1 R261Q PAH,Arg261Gln (R261Q) PAH [4]; [5],2.21 °C
same,ΔTm2 R261Q PAH,Arg261Gln (R261Q) PAH [4]; [6],2.82 °C
